Data: patent publication US20080009546A1 (Chevron U.S.A. Inc., priority 2005, published 2008)
Read-outs that look alike come from different tables or passages of the source. Each block holds one molecule with its values, some of them ahead of it.

Assays:
[1] = tested on: primary neurons from rat cerebral cortex; assay: NMDA-induced LDH release assay in primary cortical neurons (neuroprotection); type: cell-based; conditions: for EC50: two experiments, 300 uM NMDA + 50 μM glycine 15 minutes, LDH after 24 hours, read-out: average EC50 (±SD), NMDA-induced LDH release
Experimental: The neuroprotective properties of drugs have been studied in vitro, using neurons cultured from cortex, cerebellum or retina. […] Neurotoxicity is determined in this assay by measuring lactate dehydrogenase (LDH), a method which is simple, accurate and reproducible. We conducted pilot studies to test if poly-lysine-coated plates would be suitable as a matrix upon which to plate fetal neurons, compared to astrocyte-coated plates. We also compared the use of growth medium to neurobasal medium supplemented with B27 in the pilot experiments. The concentrations of NMDA (300-500 μM), glycine (10-50 μM), and memantine (10-100 μM) were varied, and optimum concentrations and times determined from these pilot studies were then chosen for the main study. The assay is described below.
Fetal rat neocortical cells were cultured on a mouse astroglial feeder layer. To obtain mouse astroglial cells for the feeder layer, cortices were harvested from 1-day old Swiss Webster mice (Charles River, Hollister, Calif.) according to the procedure described by Rose et al (1993). After dissecting cortices in ice-cold dissecting medium, they were minced and incubated in 0.09% trypsin in media stock for 1 hr, followed by resuspension in growth medium containing 10% equine serum and 10% fetal bovine serum. A single-cell suspension was obtained by triturating through fire-bored glass pipettes, and the resulting cell suspension was plated at a density of 0.5-0.75 hemispheres/24-well plate/9.6 ml, with 0.4 ml/well. Plates were incubated in a humidified incubator at 37° C., 5% CO2. Astroglial cells become confluent in about 2-3 weeks, at which time these cultures are ready to be used as feeder layers upon which neuronal cultures can be plated. Neuronal cells were obtained from gestational Sprague-Dawley rats E16-E18, using a similar dissection procedure. Rat embryos were dissected to obtain cortical tissue, which was plated as a single-cell suspension at a density of 1.4 hemispheres/24-well plate/9.6 ml, with 0.4 ml/well. These cells were plated on the existing astroglial feeder layer, and were incubated at 37° C., 5% CO2. After 5 days in culture, cytosine arabinoside (10 μM) was added to the wells to inhibit glial cell proliferation, and after 24 hours, the medium was replaced with fresh growth medium. Cells were fed with fresh growth medium every 2 days, until the experiments were performed. For coating plates with poly-lysine, we used poly-d-lysine hydrobromide (Sigma Cat # P7280) at a concentration of 0.1 mg/ml to coat each well using a minimum volume of 0.2 ml/well. After coating for 5 minutes, the solution was aspirated and wells were rinsed thoroughly with sterile tissue culture grade water. After drying for 2 hours, plates were ready for use. Neuronal cultures were plated onto poly-lysine-coated plates at the same density as above. For the pilot study, some of the cultures were fed with 1:1 ratio of growth medium: neurobasal medium (GIBCO)+B-27 supplement (2%), while the rest of the cultures were fed with growth medium alone (Losi et al., 2006). For the main study, we used astroglial feeder layers to plate the neuronal cultures, and used a mix (1:1) of growth medium with neurobasal medium+B-27 supplement for feeding the cultures.
After 11-14 days in culture, neuronal cells were confluent and experiments were performed. Cells were washed twice using sterile Locke's buffer (154 mM NaCl, 5.6 mM KCl, 2.3 mM CaCl2, 3.6 mM NaHCO3, 5.5 mM D-glucose, 5 mM HEPES, pH 7.4), and then exposed to the various treatment compounds. […] After 15 minutes, cultures were washed twice and incubated overnight in media stock. After 24 hours, supernatants and lysates were collected to measure LDH activity. LDH activity was measured by the reduction of NAD, which was utilized in the stoichiometric conversion of a tetrazolium dye using a kit (Sigma TOX-7). Supernatants were removed from the wells and centrifuged before LDH measurements. The adherent cells were lysed to obtain total LDH. […]

[2] = molecular target: NMDA receptor; assay: [3H]MK-801 binding assay, NMDA receptors in guinea pig brain membranes; conditions: for Relative affinity: compared to that of Memantine
Experimental: Hartley guinea pigs were sacrificed, and their brains were quickly removed and weighed. The brains then were homogenized in 50 mM Tris HCl buffer, pH 7.7, using a Polytron homogenizer. The homogenate was centrifuged at 40,000×g for 15 min, rehomogenized, and centrifuged again. The final pellet was resuspended in Tris-HCl, pH 7.7, at a final concentration of 6.67 mg original wet weight of tissue/ml. […] The samples were then filtered through glass fiber filters on a Tomtec cell harvester. The filters were washed 3 times with 3 ml of cold buffer. Filters were dried overnight and counted next day on a Wallac Betaplate Reader.
The binding experiments were conducted as follows. […] For each compound, graphs were prepared containing individual competition curves obtained for that compound. IC50 values and Hill coefficients were calculated using the program Prism. Ki values were calculated using the Chang Prusoff transformation: Ki=IC50/(1+L/Kd)
where L is radioligand concentration and Kd is the binding affinity of the radioligand, as determined previously by saturation analysis. […] In each experiment, one standard compound was simultaneously run on each 96 well plate.

[3] = tested on: NMDA receptor; assay: Whole-cell voltage-clamp recordings of NMDA evoked currents in hypocretin neurons (hypothalamic slices); type: cell-based, mouse; conditions: bath application, -60 mV, mean±SEM
[4] = guinea pig brain membrane preparation (Table 29), read-out: Ki
[5] = Rattus norvegicus, Primary neuron
[6] = NMDA 300 μM + 10 μM glycine, astrocyte-coated rat neurons, GM/NB + B-27 fed, 21 hour incubation
[7] = NMDA 300 μM + 10 μM glycine, poly-lysine-coated rat neurons, GM/NB + B-27 fed, 40 hour incubation
[8] = NMDA 300 uM + 50 uM glycine, astrocyte-coated rat neurons, GM/NB + B-27 fed, 24 hour incubation
[9] = NMDA 300 uM + glycine 50 uM, Plate #4, poly-lysine-coated rat neurons, GM/NB + B-27 fed, 24 hour incubation
[10] = NMDA 300 uM + glycine 50 uM, Plate #5, astrocyte-coated rat neurons, GM fed, 24 hour incubation
[11] = NMDA 300 μM - 21 hr, astrocyte-coated rat neurons, GM/NB + B-27 fed, 21 hour incubation
[12] = NMDA 300 uM - 40 hr, poly-lysine-coated rat neurons, GM/NB + B-27 fed, 40 hour incubation
[13] = NMDA 500 μM + 10 μM glycine, astrocyte-coated rat neurons, GM/NB + B-27 fed, 21 hour incubation
[14] = NMDA 500 uM + 10 uM glycine, poly-lysine-coated rat neurons, GM/NB + B-27 fed, 40 hour incubation
[15] = NMDA 500 μM - 21 hr, astrocyte-coated rat neurons, GM/NB + B-27 fed, 21 hour incubation
[16] = NMDA 500 uM - 40 hr, poly-lysine-coated rat neurons, GM/NB + B-27 fed, 40 hour incubation

Molecule: 2-aminotriamantane [MDT-50]
EC50 [1]: 107 ± 88.3 µM
Ki ([2]; [3H]MK-801 (1 nM), guinea pig brain membrane preparation, read-out: Ki (binding affinity)): 19.1 µM
Relative affinity [2]: 0.038

Molecule: NC12CC3C4CC5CC3C(C1)C(C5)C4C2 [MDT-3]
Relative affinity [2]: 0.021
Ki [2, 4]: 34.6 ± 3.7 µM
inhibition of the peak amplitude of NMDA evoked currents ([3]; 10 μM): did not produce inhibition
inhibition of the peak amplitude of NMDA evoked currents ([3]; 100 μM): did not produce inhibition

Molecule: CC12CC3(N)CC4C1CC1CC2C(N)(C3)C4(C)C1 (stereo not drawn) [MDT-9, 1,6-dimethyl-2,4-diaminodiamantane]
Relative affinity [2]: 0.032
Ki [2, 4]: 22.5 ± 0.9 µM
inhibition of the peak amplitude of NMDA evoked currents ([3]; 10 μM): 13.2±9%
inhibition of the peak amplitude of NMDA evoked currents ([3]; 100 μM): 15.2±4.8%

Molecule: CC12CC3CC4C5CC(N)(CC41)CC2C5C3 [MDT-24, 1-methyl-4-aminodiamantane]
EC50 [1, 5]: 34.3 ± 11.3 µM
Relative affinity [2]: 0.045
Ki [2, 4]: 13.4 ± 5.1 µM

Molecule: CN[C@H](CC(=O)O)C(=O)O [NMDA]
% (Control Wash = 100) [1, 6]: 144%
Secreted LDH (Avg) [1, 6]: 0.44
Secreted/(total + secreted) (Avg) [1, 6]: 11.95
Total LDH (Avg) [1, 6]: 3.25
% (Control Wash = 100) [1, 7]: 116%
Secreted LDH (Avg) [1, 7]: 0.39
Secreted/(total + secreted) (Avg) [1, 7]: 13.33
Total LDH (Avg) [1, 7]: 2.56
% (Control Wash = 100) [1, 8]: 271%
Secreted LDH (Avg) [1, 8]: 0.76
Secreted/(total + secreted) (Avg) [1, 8]: 19.61
Total LDH (Avg) [1, 8]: 3.10
% (Control Wash = 100) [1, 9]: 163%
Secreted LDH (Avg) [1, 9]: 0.69
Secreted/(total + secreted) (Avg) [1, 9]: 17.79
Total LDH (Avg) [1, 9]: 3.19
% (Control Wash = 100) [1, 10]: 109%
Secreted LDH (Avg) [1, 10]: 0.20
Secreted/(total + secreted) (Avg) [1, 10]: 6.37
Total LDH (Avg) [1, 10]: 2.90
% (Control Wash = 100) [1, 11]: 166%
Secreted LDH (Avg) [1, 11]: 0.52
Secreted/(total + secreted) (Avg) [1, 11]: 13.82
Total LDH (Avg) [1, 11]: 3.22
% (Control Wash = 100) [1, 12]: 127%
Secreted LDH (Avg) [1, 12]: 0.45
Secreted/(total + secreted) (Avg) [1, 12]: 14.55
Total LDH (Avg) [1, 12]: 2.61
% (Control Wash = 100) [1, 13]: 139%
Secreted LDH (Avg) [1, 13]: 0.51
Secreted/(total + secreted) (Avg) [1, 13]: 11.56
Total LDH (Avg) [1, 13]: 3.91
% (Control Wash = 100) [1, 14]: 114%
Secreted LDH (Avg) [1, 14]: 0.44
Secreted/(total + secreted) (Avg) [1, 14]: 13.07
Total LDH (Avg) [1, 14]: 2.92
% (Control Wash = 100) [1, 15]: 147%
Secreted LDH (Avg) [1, 15]: 0.51
Secreted/(total + secreted) (Avg) [1, 15]: 12.23
Total LDH (Avg) [1, 15]: 3.65
% (Control Wash = 100) [1, 16]: 125%
Secreted LDH (Avg) [1, 16]: 0.48
Secreted/(total + secreted) (Avg) [1, 16]: 14.35
Total LDH (Avg) [1, 16]: 2.91
Ki ([2]; standard compounds at the NMDA site (Table 27), read-out: Ki): 596 µM

Molecule: mixture of 1-amino-4-methyldiamantane and 2-amino-4-methyldiamantane [MDT-32]
Relative affinity [2]: 0.064
Ki [2, 4]: 11.4 ± 3.7 µM

Molecule: mixture of 4-methyl-9-aminodiamantane and 4-aminodiamantane [MDT-34]
Ki [2, 4]: > 1000 µM

The remaining lines, values ahead:

EC50 [1, 5]: 28.4 ± 12.8 µM
Relative affinity [2]: 0.143
Ki [2, 4]: 5.1 ± 0.7 µM
Molecule: CC12CC3CC4C1CC1CC2C(N)(C3)C4(C)C1 (stereo not drawn) [MDT-43, 1,6-dimethyl-2-aminodiamantane]

EC50 [1, 5]: 15.7 ± 9.1 µM
Relative affinity [2]: 0.155
Ki [2, 4]: 4.7 ± 2.4 µM
Molecule: CC12CC3C4CC5(C)CC3C(C1)C(N)(C5)C4C2 [MDT-51, 4,9-dimethyl-1-aminodiamantane]

Relative affinity [2]: 0.100
Ki [2, 4]: 7.3 ± 1.1 µM
Molecule: CC12CC3CC4C1CC1(CN)CC2C(C3)C4(C)C1 [MDT-65]

Relative affinity [2]: 0.187
Ki [2, 4]: 3.9 ± 0.2 µM
Molecule: mixture of 1-methyl-2-aminodiamantane and 1-methyl-6-aminodiamantane [MDT-31]
